Measured values: PubChem BioAssay (NCI)
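Assay format: 96-well plates, 48-hour exposure. TGI is the concentration that stops growth completely.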

Key:
Assay in all cases: inhibition of tumour cell growth, NCI panel, 48 h
SF-268 CNS = system: SF-268 CNS
CCRF-CEM leukemia = system: CCRF-CEM leukemia
LXFL 529 NSCLC = system: LXFL 529 NSCLC
KM12 colon = system: KM12 colon
SK-MEL-5 melanoma = system: SK-MEL-5 melanoma
SN12C renal = system: SN12C renal
A498 renal = system: A498 renal
SNB-75 CNS = system: SNB-75 CNS
M14 melanoma = system: M14 melanoma
786-0 renal = system: 786-0 renal
CAKI-1 renal = system: CAKI-1 renal
RXF-631 renal = system: RXF-631 renal
LOX IMVI melanoma = system: LOX IMVI melanoma
HCT-15 colon = system: HCT-15 colon
NCI-H226 lung = system: NCI-H226 lung
SNB-78 CNS = system: SNB-78 CNS
M19-MEL melanoma = system: M19-MEL melanoma
DMS 273 small cell lung = system: DMS 273 small cell lung
U251 CNS = system: U251 CNS
OVCAR-4 ovarian = system: OVCAR-4 ovarian
SW-620 colon = system: SW-620 colon
ACHN renal = system: ACHN renal
HOP-18 NSCLC = system: HOP-18 NSCLC
XF 498 CNS = system: XF 498 CNS
KM20L2 colon = system: KM20L2 colon
UACC-257 melanoma = system: UACC-257 melanoma
DLD-1 colon = system: DLD-1 colon
RPMI-8226 leukemia = system: RPMI-8226 leukemia
HOP-92 NSCLC = system: HOP-92 NSCLC
MALME-3M melanoma = system: MALME-3M melanoma
NCI-H522 lung = system: NCI-H522 lung
HT29 colon = system: HT29 colon
EKVX NSCLC = system: EKVX NSCLC
HCC-2998 colon = system: HCC-2998 colon
IGROV1 ovarian = system: IGROV1 ovarian
HL-60(TB) leukemia = system: HL-60(TB) leukemia
K-562 leukemia = system: K-562 leukemia
A549 NSCLC = system: A549 NSCLC
SK-MEL-2 melanoma = system: SK-MEL-2 melanoma
MOLT-4 leukemia = system: MOLT-4 leukemia
SK-OV-3 ovarian = system: SK-OV-3 ovarian
SNB-19 CNS = system: SNB-19 CNS
SF-539 CNS = system: SF-539 CNS
SF-295 CNS = system: SF-295 CNS
OVCAR-8 ovarian = system: OVCAR-8 ovarian
UO-31 renal = system: UO-31 renal
TK-10 renal = system: TK-10 renal
OVCAR-3 ovarian = system: OVCAR-3 ovarian
HCT-116 colon = system: HCT-116 colon
SR leukemia = system: SR leukemia
HOP-62 NSCLC = system: HOP-62 NSCLC
UACC-62 melanoma = system: UACC-62 melanoma
DMS 114 small cell lung = system: DMS 114 small cell lung
SK-MEL-28 melanoma = system: SK-MEL-28 melanoma
NCI-H23 lung = system: NCI-H23 lung
NCI-H460 lung = system: NCI-H460 lung
OVCAR-5 ovarian = system: OVCAR-5 ovarian
RXF 393 renal = system: RXF 393 renal
COLO 205 colon = system: COLO 205 colon

Measured: TGI

COC(=O)/C(=N\NC(N)=O)C(C(=O)C(=O)Nc1ccccc1C(=O)OC)c1nc2ccc(C(=O)c3ccccc3)cc2[nH]c1=O (stereo not given)
not listed: RXF 393 renal | COLO 205 colon
> 100 µM: all other assays above

OCn1nc2c(C3OCCO3)cc3ccccc3n2c1=S
not listed: HCC-2998 colon
> 100 µM: all other assays above
